Measured values as given in patent publication US20150315153A1, “NOVEL SULFONIC ACID DERIVATIVE COMPOUND, PHOTOACID GENERATOR, CATIONIC POLYMERIZATION INITIATOR, RESIST COMPOSITION, AND CATIONICALLY POLYMERIZABLE COMPOSITION” (ADEKA CORPORATION, priority 2012, published 2015).

Columns and labels:
[1] = UV absorption spectrum in acetonitrile; format: physicochemical; details: for Maximum absorption wavelength: absorption in a range of 300 nm to 400 nm; for ε at maximum absorption wavelength (molar extinction coefficient): second line of the cell
Procedure: (§1) Compound Nos. 4, 5, 7, 10, 20, 6, 35, 38 and 40 and Comparative Compound 1 represented by the Formula below were each dissolved in acetonitrile, and their absorption spectra were measured using a […] U-3010 to determine the values of ?max and (molar extinction coefficient) for absorption in a range of 300 nm to 400 nm as well as the value of ε at 365 nm. […] As for the solubility, the concentration of each compound was increased by 1%-by-mass increments and the concentration at which no compound was left undissolved was determined and, in the results shown in Table 4, the solubility is indicated in terms of this concentration.

[2] = Solubility to propylene glycol monomethyl ether acetate at 25° C.; format: physicochemical; details: for Solubility: concentration at which no compound was left undissolved; for solubility, ranking among compounds grouped by sulfonate moiety: among Compound Nos. 4, 5, 7 and 10, among Compound Nos. 6, 38 and 40
Procedure: as §1

[3] = Weight loss starting point (thermal analysis); format: physicochemical
[4] = propylene glycol monomethyl ether acetate, 25° C.

Compound | ε at 365 nm [1] | Maximum absorption wavelength [1] [nm] | ε at maximum absorption wavelength (molar extinction coefficient) [1] | Solubility [2, 4] [% by mass] | Weight loss starting point [3] [°C] | melting point [°C] | solubility, ranking among compounds grouped by sulfonate moiety [2] | solubility (in words) [2, 4] | solubility, comparison between Compound Nos. 4 and 20 (different Xs) [2, 4]
CCCCc1ccc2c3c(cccc13)C(=O)N(OS(=O)(=O)CC13CCC(CC1=O)C3(C)C)C2=O (centres unmarked) [Compound No. 10] | 1.17 × 10^4 | 346 | 1.68 × 10^4 | 5 | 279 | 134 | – | – | –
CC1(C)C2CCC1(CS(=O)(=O)ON1C(=O)c3cccc4cccc(c34)C1=O)C(=O)C2 (centres unmarked) [Comparative Compound 1, reference compound] | 6.48 × 10^2 | 335 | 1.34 × 10^4 | 2 | – | – | – | – | –
CCCCC(CC)Cc1ccc2c3c(cccc13)C(=O)N(OS(=O)(=O)c1ccc(C)cc1)C2=O (centres unmarked) [Compound No. 38] | 1.24 × 10^4 | 345 | 1.76 × 10^4 | 1.6 | 304.9 | 129.6 | – | – | –
CCCCc1ccc2c3c(cccc13)C(=O)N(OS(=O)(=O)c1c(C(C)C)cc(C(C)C)cc1C(C)C)C2=O [Compound No. 7] | 1.06 × 10^4 | 344 | 1.65 × 10^4 | 5 | 267 | 131 | – | – | –
CCCCCCCCCCCCCCc1ccc2c3c(cccc13)C(=O)N(OS(=O)(=O)c1ccc(C)cc1)C2=O [Compound No. 40] | 1.05 × 10^4 | 344.5 | 1.68 × 10^4 | 1.9 | 301.8 | 95.5 | – | – | –

Results, then the molecule that gave them:

ε at 365 nm [1] | Maximum absorption wavelength [1] [nm] | ε at maximum absorption wavelength (molar extinction coefficient) [1] | Solubility [2, 4] [% by mass] | Weight loss starting point [3] [°C] | melting point [°C] | solubility, ranking among compounds grouped by sulfonate moiety [2] | solubility (in words) [2, 4] | solubility, comparison between Compound Nos. 4 and 20 (different Xs) [2, 4] | Compound
1.11 × 10^4 | 345.0 | 1.68 × 10^4 | 2.0 | 302 | 192 | – | – | – | CCCCc1ccc2c3c(cccc13)C(=O)N(OS(=O)(=O)c1ccc(C(F)(F)F)cc1)C2=O [Compound No. 35]
9.95 × 10^3 | 344 | 1.64 × 10^4 | 5 | 253 | 145 | – | – | – | CCc1ccc2c3c(cccc13)C(=O)N(OS(=O)(=O)C(F)(F)F)C2=O [Compound No. 20]
1.02 × 10^4 | 343.5 | 1.67 × 10^4 | 2.3 | 314.8 | 145.1 | highest solubility | – | – | CCCCc1ccc2c3c(cccc13)C(=O)N(OS(=O)(=O)c1ccc(C)cc1)C2=O [Compound No. 6]
1.16 × 10^4 | 346 | 1.65 × 10^4 | 20 | 250 | 110 | highest solubility | high solubility | higher solubility | CCCCc1ccc2c3c(cccc13)C(=O)N(OS(=O)(=O)C(F)(F)F)C2=O [Compound No. 4]
